{
  "source": "patent US20230255965A1",
  "about": "“TRPV4 INHIBITOR AS A THERAPEUTIC AGENT FOR OCULAR DISEASES” (RaQualia Pharma Inc., priority 2020, published 2023)",
  "key": {"[1]": {"tested_on": "mouse retinal vein occlusion model", "assay": "Histological evaluation for retinal vein occlusion: thickness of the retinal inner nuclear layer (INL), HE staining", "assay_type": "in vivo", "conditions": "single intravitreal administration of 2 μL, 24 hours after irradiation, vs vehicle", "protocol": "(§1) Eight-week-old male ddY mice are anesthetized with a mixture of ketamine (120 mg/kg) and xylazine (6 mg/kg) administered intramuscularly. After that, 0.15 mL of a photosensitizer, rose bengal (20 mg/kg) is administered into the tail vein, and a laser (wavelength 532 nm) is irradiated into a vein three optic disc diameters away from the optic disc in the mouse right eye to occlude the retinal vein and form a pathological condition. Laser irradiation is performed using an attachment of Micron4 (Phoenix Research lab., CA, USA), which is a fundus imaging device, under prescribed laser irradiation conditions (wavelength 532 nm, spot size 50 μm, irradiation time 5 seconds, laser power 50 mW). The vein is occluded by 10 to 15 laser irradiations per vein.\nImmediately after laser irradiation, a TRPV4 inhibitor is administered, and 24 hours after irradiation, the eyeball is removed and a retinal histopathology specimen is prepared. Hematoxylin-eosin (HE) staining is performed to measure the thickness of the retinal inner nuclear layer (INL). Other stains (e.g., TUNEL stain) may be used for analysis as needed.\nAdministration of a TRPV4 inhibitor is performed by intravitreal administration (local administration). The conditions of the solution for administration are investigated in advance, and the concentration for intravitreal administration is determined. However, if the conditions for systemic administration are met, systemic administration may be included in the group composition. For intravitreal administration, the dosage should be 2 μL/eye as a single dose. For systemic administration, the number of doses and dosage should be determined after a separate consideration.\nAfter a single intravitreal administration of 2 μL of a TRPV4 inhibitor (25 μM, 250 μM) or vehicle, whether the TRPV4 inhibitor restores the retinal edema is evaluated."}, "[2]": {"tested_on": "human retinal microvascular endothelial cells (HRMECs)", "assay": "Cell permeability using human retinal microvascular endothelial cells, transendothelial electrical resistance (TEER)", "assay_type": "cell-based", "conditions": "for inhibition at 10 µM: Homo sapiens, HRMEC, read-out: inhibition rate of increased vascular permeability (TEER); for change of transepithelial electrical resistance (TEER values): 24 hours after addition", "protocol": "Human retinal microvascular endothelial cells (HRMECs) are seeded onto Transwell inserts at a density of 1.0×10^5 cells/mL. The medium is changed every other day and the cells are cultured for 7 days. Transendothelial electrical resistance (TEER) is measured using a measurement device and cup-shaped electrode (Endohm-6; World Precision Instruments, USA). One hour after the addition of a TRPV4 inhibitor (final concentration: 1 μM, 10 μM) or buffer for evaluation to cells, VEGF (final concentration: 10 ng/mL) or GSK1016790A, a TRPV4 agonist (final concentration: 10 nM) is added, and 24 hours after the addition, transepithelial electrical resistance values (TEER values) is measured 24 hours after addition. The transepithelial electrical resistance value (TEER value) is an index for evaluating barrier functions such as tight junctions of cells."}, "[3]": {"tested_on": "mouse model of retinal vein occlusion", "assay": "Late drug administration 7 days after vascular occlusion: ocular blood flow (laser speckle)", "assay_type": "in vivo", "conditions": "250 μM, 2 μL intravitreal 7 days after occlusion, measured 1 day after administration", "protocol": "as §1\n(§2) Seven days after vascular occlusion, the retina is damaged, the retinal layer structure is thinned, the blood flow is reduced, and a retinal nonperfusion area exists. Whether the TRPV4 inhibitor restores this condition is evaluated. […]\n(§3) Seven days after vascular occlusion, 2 μL of a TRPV4 inhibitor (250 μM) or vehicle is administered intravitreally. One day after administration (8 days after occlusion), the retinal layers are imaged using optical coherence tomography (OCT) and intraocular blood flow is measured using laser speckle."}, "[4]": {"tested_on": "mouse model of retinal vein occlusion", "assay": "Late drug administration 7 days after vascular occlusion: suppression of retinal thinning (OCT)", "assay_type": "in vivo", "conditions": "250 μM, 2 μL intravitreal 7 days after occlusion, measured 1 day after administration", "protocol": "as §1, §2, §3"}, "[5]": {"tested_on": "tumor necrosis factor alpha (TNFα)", "assay": "Expression of TNFα in retina of mouse retinal vein occlusion model by Western blotting", "assay_type": "in vivo", "conditions": "250 μM, 2 μL intravitreal immediately after vascular occlusion, retina 1 day after occlusion", "protocol": "as §1\nUsing the same method as in Example 3, the retinal veins of mice are occluded by laser irradiation into the veins of the eye.\nImmediately after laser irradiation, 2 μL of a TRPV4 inhibitor (250 μM) is administered intravitreally. One day after vascular occlusion, the mice are euthanized by cervical dislocation, and then retinas isolated from removed eyeballs are evaluated by Western blotting."}, "[6]": {"tested_on": "mouse model of retinal vein occlusion", "assay": "Late drug administration 7 days after vascular occlusion: retinal nonperfusion area (FITC-dextran flat mount)", "assay_type": "in vivo", "conditions": "250 μM, 2 μL intravitreal 7 days after occlusion, 1 day after administration", "protocol": "as §1, §2\nSeven days after vascular occlusion, 2 μL of a TRPV4 inhibitor (250 μM) or vehicle is administered intravitreally. One day after administration (8 days after occlusion), the retinal layers are imaged using optical coherence tomography (OCT) and intraocular blood flow is measured using laser speckle. […]"}, "diabetic model mice": {"tested_on": "diabetic model mice", "conditions": "cited from earlier work; for retinal edema: single intravitreal administration"}, "[7]": {"conditions": "final concentration 10 μM, compared to VEGF-added group, 24 hours"}},
  "note": "Read-outs that look alike come from different tables or passages of the source.",
  "data": [
    {"compound": "CC(C)(O)c1cnc(N2C[C@@]3(CCC[C@](C)(Cn4cnc5ccc(C#N)cc54)C3)OC2=O)cn1", "note": "[Compound B, 1-(((5S,7S)-3-(5-(2-hydroxypropan-2-yl)pyrazin-2-yl)-7-methyl-2-oxo-1-oxa-3-azaspiro[4.5]decan-7-yl)methyl)-1H-benzo[d]imidazole-6-carbonitrile]", "values": [
      {"measurement": "inhibition rate of the increase in the thickness of the retinal inner nuclear layer (INL)", "setting": "[1]; 250 μM", "result": 62, "unit": "%"},
      {"measurement": "inhibition at 10 µM", "setting": "[2]; 24 h", "result": "≥ 30", "unit": "%"}
    ]},
    {"compound": "O=C([C@H](O)c1cccc(Cl)c1)N1CCc2nc(C3(c4ccccc4)CC3)[nH]c(=O)c2C1", "note": "[Compound A, (R)-6-(2-(3-chlorophenyl)-2-hydroxyacetyl)-2-(1-phenylcyclopropyl)-5,6,7,8-tetrahydropyrido[4,3-d]pyrimidin-4(3H)-one]", "values": [
      {"measurement": "improvement of ocular blood flow reduction rate", "setting": "[3]", "result": "≥ 30", "unit": "%"},
      {"measurement": "inhibition rate of the increase in the thickness of the retinal inner nuclear layer (INL)", "setting": "[1]; 25 μM", "result": 40, "unit": "%"},
      {"measurement": "inhibition rate of the increase in the thickness of the retinal inner nuclear layer (INL)", "setting": "[1]; 250 μM", "result": 76, "unit": "%"},
      {"measurement": "inhibition rate of increased vascular permeability (TEER)", "setting": "[2]; final concentration 1 μM, 10 μM, VEGF 10 ng/mL or GSK1016790A 10 nM added, 24 hours", "result": "≥ 50", "unit": "%"},
      {"measurement": "inhibition of retinal thinning", "setting": "[4]", "result": "≥ 30", "unit": "%"},
      {"measurement": "inhibition rate of the increase in TNF expression", "setting": "[5]", "result": "≥ 50", "unit": "%"},
      {"measurement": "inhibition rate of nonperfusion areas in the retina", "setting": "[6]", "result": "≥ 50", "unit": "%"}
    ]},
    {"compound": "O=C(NC1(c2ccccc2)CC1)c1c(CN2CCC(N3CCCCC3)CC2)c(-c2cccc(C(F)(F)F)c2)nc2cc(Br)ccc12", "note": "[Compound C, 3-(1,4′-bipiperidin-1′-ylmethyl)-7-bromo-N-(1-phenylcyclopropyl)-2-[3-(trifluoromethyl)phenyl]-4-quinolinecarboxamide]", "values": [
      {"measurement": "inhibition rate of the increase in the thickness of the retinal inner nuclear layer (INL)", "setting": "[1]; 250 μM", "result": 59, "unit": "%"},
      {"measurement": "inhibition at 10 µM", "setting": "[2]; [7]", "result": "≥ 30", "unit": "%"},
      {"measurement": "retinal thinning", "setting": "diabetic model mice; Non-Patent Literature 11", "result": "not suppressed"},
      {"measurement": "retinal edema", "setting": "diabetic model mice; Non-Patent Literature 11", "result": "it does not"},
      {"measurement": "retinal edema", "setting": "diabetic model mice; Patent Literature 2", "result": "suppresses retinal edema"}
    ]},
    {"compound": "CC(C)C[C@H](NC(=O)c1cc2ccccc2s1)C(=O)N1CCN(C(=O)[C@H](CO)NS(=O)(=O)c2ccc(Cl)cc2Cl)CC1", "note": "[GSK1016790A]", "values": [
      {"measurement": "change of transepithelial electrical resistance (TEER values)", "setting": "[2]; GSK1016790A final concentration 10 nM", "result": "decreases transepithelial electrical resistance"}
    ]},
    {"compound": "Cc1c(C(=O)Nc2cccc(C(F)(F)F)c2)cc(-c2ccccc2)n1CCCN1CCOCC1", "note": "[Compound D, N-(3-(trifluoromethyl)phenyl)-2-methyl-1-(3-morpholinopropyl)-5-phenyl-1H-pyrrole-3-carboxamide]", "values": [
      {"measurement": "inhibition rate of the increase in the thickness of the retinal inner nuclear layer (INL)", "setting": "[1]; 250 μM", "result": 64, "unit": "%"},
      {"measurement": "inhibition at 10 µM", "setting": "[2]; [7]", "result": "≥ 30", "unit": "%"}
    ]},
    {"compound": "VEGF", "values": [
      {"measurement": "change of transepithelial electrical resistance (TEER values)", "setting": "[2]; VEGF final concentration 10 ng/mL", "result": "decreases transepithelial electrical resistance"}
    ]}
  ]
}
